From PMC4626104, “Inhibition on Proteasome β1 Subunit Might Contribute to the Anti-Cancer Effects of Fangchinoline in Human Prostate Cancer Cells” (PLoS ONE, 2015) come the findings set out here.

The target in assay [1] is T1, recombinant human proteasome β1 subunit (Homo sapiens, UniProt P28072).
T1 construct: His-Tag; made in house; host or cells: Escherichia coli
T1 sequence (P28072 1-239): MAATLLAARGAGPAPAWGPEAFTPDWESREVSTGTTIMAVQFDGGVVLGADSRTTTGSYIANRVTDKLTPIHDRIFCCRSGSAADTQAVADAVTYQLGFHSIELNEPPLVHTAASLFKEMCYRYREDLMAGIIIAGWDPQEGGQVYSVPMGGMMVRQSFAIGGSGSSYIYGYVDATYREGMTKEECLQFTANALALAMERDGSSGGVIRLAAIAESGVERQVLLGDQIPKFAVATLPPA
As to the kind of experiment: Enzyme activity of recombinant proteasome catalytic β1 subunit (Z-LLE-AMC). It is filed as biochemical. The settings on record: 50 μM Z-LLE-AMC, 2 h incubation. Here is the method:
Briefly, catalytic activity of the recombinant human proteasome β1 subunit was assayed by adding recombinant β1 subunit protein (30 μg) to 100 μL of proteasome activity assay buffer (10 mM Tris-HCL, pH 7.8, 5 mM adenosine triphosphate, 0.5 mM dithiothreitol and 5 mM MgCL2•6H2O) containing 50 μM Z-LLE-AMC in the presence of fangchinoline or tetrandrine at different concentrations or not. The hydrolase activity of the proteasome catalytic β1 subunit could release the fluorogenic AMC component from substrate Z-LLE-AMC and the AMC release was measured after 2 h incubation using a Microplate Reader Bio-Rad 550 with excitation and emission wavelengths of 360 and 465 nm, respectively.

The target in assay [2] is T1, recombinant human proteasome β1 subunit. As to the kind of experiment: Surface plasmon resonance (Biacore) binding assay. The method, then: The recombinant human proteasome β1 subunit, product of PSMB6 gene, was expressed as His-Tag proteins using Escherichia coli, and then purified by affinity chromatography as reported in our previous study. The binding affinities of fangchinoline or tetrandrine to recombinant proteasome catalytic β1 subunit, were assayed in vitro using an Biacore 3000 instrument (Biacore AB, Rapsgatan 7, S-754 50 Uppsala, Sweden) as reported before. Briefly, recombinant proteasome β1 subunit protein was immobilized on a CM5 sensor chip as ligand in 11624.5 RU with N-ethyl-N’-(3-dimethylaminopropyl) carbodiimide and N-hydroxysuccinimide according to the standard primary amine-coupling procedures, and HBS-EP (10 mM HEPES, 150 mM NaCl, 3 mM EDTA, 0.005% (v/v) surfactant P20, pH 7.4) was used as the running buffer. Equilibration of the baseline was performed by a continuous flow of HBS-EP through the chip surface for 1 to 2 h. Biacore data were collected at 25°C with HBS-EP as the running buffer at a constant flow of 20 μL/min. Fangchinoline or tetradrine was serially diluted into the running buffer to 0, 2.4, 3.43, 4.90, 7.0, 10 and 20 μM. The samples were injected into the channels at a flow rate of 20 μL/min, followed by washing with the running buffer. The binding responses were recorded continuously in response units (RU) at a frequency of 1Hz as sensorgrams and presented as a function of time. The association (k a) and dissociation (k d) rate constants, the equilibrium dissociation constant ( KD=kd/ka ) were determined by analysis of the sensorgram-curves obtained at different concentrations of the compound by use of BIA evaluation software version 3.1 (Biacore) and the 1:1 Langmuir binding fitting model.
Background: Surface plasmon resonance follows binding to a sensor surface in real time, without labels.

On to `COc1ccc2cc1Oc1ccc(cc1)C[C@H]1c3cc(c(OC)cc3CCN1C)Oc1c(OC)c(OC)cc3c1[C@H](C2)N(C)CC3` [tetrandrine, reference compound], for which the “Inhibition of enzyme activity of recombinant proteasome β1 subunit” value in assay [1] is listed as “directly inhibit”. Besides, the “Dissociation (k d)” value in assay [2] (Biacore, 25°C, 1:1 Langmuir model) was found to be 0.0162 S^-1. Further, the Kd in assay [2] (Biacore, 25°C, 1:1 Langmuir model, read-out: Equilibrium dissociation (K D)) worked out at 5.61 µM. Moreover, in assay [2] (pH 7.4, read-out: Association (k a)), the kon was 2890 M⁻¹ s⁻¹.
